Results reported in patent publication US20090036497A1, “ECTOPARASITE CONTROL METHOD” (priority 2007, published 2009).

Experiments:
adult H. irritans exigua = test: Adult H. irritans exigua feeding assay (blood meal assay); assay type: in vivo
Experimental: Adult H. irritans exigua Feeding Assay
A blood meal assay was used to determine the LC50 for test compound (3-bromo-1-(3-chloro-2-pyridinyl)-N-[4-cyano-2-methyl-6-[(methylamino)carbonyl]phenyl]-1H-pyrazole-5-carboxamide) on adult H.irritans exigua. Six (6) serial dilutions of the test compound were prepared in decoagulated bovine blood that was stored refrigerated. Ivermectin was included as a positive control compound and a negative control was included in each assay. Flies were collected with a net immediately before each assay from yarded commercial cattle. About 100 adults were introduced into a mesh cage (30×30×30 cm) containing one cotton gauze (4×4×1 cm) soaked in one blood/insecticide concentration. There were 3 replicate cages of each blood/insecticide concentration. Blood gauzes were replaced every 12 hours. The untreated control cages received untreated decoagulated blood. All cages were labelled and stored for 72 hours at 25-27° C. in the dark at ambient relative humidity (70-85%). […] Data was subjected to log-probit analysis to determine the LC50 if there is a dose response in the assay.

Cat Fleas (C. felis) = test: In vivo evaluation against artificial infestations with cat fleas on dogs; conditions: for Flea efficacy compared to the untreated control: topical line-on (test compound 60 mg/kg in NMP); for Flea efficacy (%) compared to the untreated control: topical line-on, test compound 60 mg/kg in NMP
Text: (§1) In vivo evaluation Against Artificial Infestations With Cat Fleas (C. felis) and Brown Dog Ticks (R. sanguineus) on Dogs
(§2) Twenty five dogs were used in this study that investigated the efficacy of test compound (3-bromo-1-(3-chloro-2-pyridinyl)-N-[4-cyano-2-methyl-6-[(methylamino)carbonyl]phenyl]-1H-pyrazole-5-carboxamide) against fleas and ticks. Two groups (one treated and one untreated) of five dogs were used to evaluate the flea efficacy whilst two groups of five dogs (one treated and one untreated) were used to investigate the tick efficacy. The dogs in the respective groups were infested weekly with 40 unfed adult ticks and 100 cat fleas. One group was treated with ADVANTIX and served as a positive control. The dogs in this group were infested simultaneously with fleas and ticks. Test compound was formulated in NMP. The treatment was applied topically via syringe on the dorsal line of the animals as a line-on at 60 mg/kg dose rate. The efficacy of the compound was assessed by weekly tick and flea counts. The weekly counts generated in the treated groups were compared to the positive and negative untreated control (UTC) group counts to evaluate efficacy of Test compound.

[1] = test system: Brown Dog Ticks (R. sanguineus); test: In vivo evaluation against artificial infestations with brown dog ticks on dogs; conditions: for Tick efficacy (%) compared to the untreated control: topical line-on, test compound 60 mg/kg in NMP
Text: as §1, §2

[2] = test system: cat flea (Ctenocephalides felis Bouche); test: In vivo evaluation against artificial infestations with cat fleas on mice; conditions: CD-1 mouse, 10 mg/kg oral in propylene glycol/glycerol formal (60:40), fleas applied 2 hours after dosing, evaluated 48 hours after flea application
Experimental: In vivo Evaluation Against Artificial Infestations With Cat Fleas (C. felis) on Mice
For evaluating control of the cat flea (Ctenocephalides felis Bouche), a CD-1® mouse (about 30 g, male, obtained from Charles River Laboratories, Wilmington, Mass.) was orally dosed with test compound in an amount of 10 mg/kg solubilized in propylene glycol/glycerol formal (60:40). Two hours after oral administration of the test compound, approximately 8 to 16 adult fleas were applied to each mouse. The fleas were then evaluated for mortality 48 hours after flea application to the mouse. 3-bromo-1-(3-chloro-2-pyridinyl)-N-[4-cyano-2-methyl-6-[(methylamino)carbonyl]phenyl]-1H-pyrazole-5-carboxamide caused 45% mortality.

[3] = 200 ppb in bovine blood, exposure time 7 hr
[4] = 200 ppb in bovine blood, exposure time 17 hr
[5] = 200 ppb in bovine blood, exposure time 24 hr
[6] = 400 ppb in bovine blood, exposure time 7 hr
[7] = 400 ppb in bovine blood, exposure time 17 hr
[8] = 400 ppb in bovine blood, exposure time 24 hr
[9] = 600 ppb in bovine blood, exposure time 7 hr
[10] = 600 ppb in bovine blood, exposure time 17 hr
[11] = 600 ppb in bovine blood, exposure time 24 hr

Compound: CNC(=O)c1cc(C#N)cc(C)c1NC(=O)c1cc(Br)nn1-c1ncccc1Cl [Test compound, 3-bromo-1-(3-chloro-2-pyridinyl)-N-[4-cyano-2-methyl-6-[(methylamino)carbonyl]phenyl]-1H-pyrazole-5-carboxamide]
- % Adult mortality (adult H. irritans exigua; [3]): 77.3%
- % Adult mortality (adult H. irritans exigua; [4]): 78.8%
- % Adult mortality (adult H. irritans exigua; [5]): 80.3%
- % Adult mortality (adult H. irritans exigua; [6]): 78.8%
- % Adult mortality (adult H. irritans exigua; [7]): 89.8%
- % Adult mortality (adult H. irritans exigua; [8]): 94.9%
- % Adult mortality (adult H. irritans exigua; [9]): 80.5%
- % Adult mortality (adult H. irritans exigua; [10]): 94.7%
- % Adult mortality (adult H. irritans exigua; [11]): 96.5%
- Flea efficacy compared to the untreated control (Cat Fleas (C. felis); 2 days post-treatment): over 99.5%
- Flea efficacy compared to the untreated control (Cat Fleas (C. felis); 9 days post-treatment): over 99.5%
- Flea efficacy compared to the untreated control (Cat Fleas (C. felis); 16 days post-treatment): over 99.5%
- Flea efficacy compared to the untreated control (Cat Fleas (C. felis); 30 days post-treatment): 97.3%
- Flea efficacy (%) compared to the untreated control (Cat Fleas (C. felis); Day 2): 99.6%
- Flea efficacy (%) compared to the untreated control (Cat Fleas (C. felis); Day 9): 99.7%
- Flea efficacy (%) compared to the untreated control (Cat Fleas (C. felis); Day 16): 99.7%
- Flea efficacy (%) compared to the untreated control (Cat Fleas (C. felis); Day 23): 98.7%
- Flea efficacy (%) compared to the untreated control (Cat Fleas (C. felis); Day 29): 97.3%
- Tick efficacy higher than the ADVANTIX ([1]; 48 hours after treatment, difference to ADVANTIX): 30%
- Tick efficacy compared to the negative control ([1]; topical line-on (test compound 60 mg/kg in NMP), 48 hours after treatment): 74%
- Tick efficacy compared to the untreated control ([1]; topical line-on (test compound 60 mg/kg in NMP), 9 days post-treatment): over 94.9%
- Tick efficacy compared to the untreated control ([1]; topical line-on (test compound 60 mg/kg in NMP), 16 days post-treatment): 90.5%
- Tick efficacy compared to the untreated control ([1]; topical line-on (test compound 60 mg/kg in NMP), 23 days post-treatment): 90.6%
- Tick efficacy compared to the untreated control ([1]; topical line-on (test compound 60 mg/kg in NMP), 30 days post treatment): 86.2%
- Tick efficacy (%) compared to the untreated control ([1]; Day 2): 74.0%
- Tick efficacy (%) compared to the untreated control ([1]; Day 9): 94.9%
- Tick efficacy (%) compared to the untreated control ([1]; Day 16): 95.0%
- Tick efficacy (%) compared to the untreated control ([1]; Day 23): 90.6%
- Tick efficacy (%) compared to the untreated control ([1]; Day 29): 86.2%
- flea mortality [2]: 45%

Compound: 22,23-dihydroavermectin B1 [Ivermectin, reference compound]
- % Adult mortality (adult H. irritans exigua; [3]): 78.5%
- % Adult mortality (adult H. irritans exigua; [4]): 91.8%
- % Adult mortality (adult H. irritans exigua; [5]): 93.1%
- % Adult mortality (adult H. irritans exigua; [6]): 80.1%
- % Adult mortality (adult H. irritans exigua; [7]): 94.2%
- % Adult mortality (adult H. irritans exigua; [8]): 98.0%
- % Adult mortality (adult H. irritans exigua; [9]): 86.0%
- % Adult mortality (adult H. irritans exigua; [10]): 95.5%
- % Adult mortality (adult H. irritans exigua; [11]): 100.0%
